# Results published in ChEMBL document CHEMBL4219053, “Antiobesity and emetic effects of a short-length peptide YY analog and its PEGylated and alkylated derivatives” (Bioorg Med Chem, 2018).
# Legend:
# Canis familiaris [1] = experiment: Emetic effect in Beagle dog at 0.01 mg/kg, sc measured after 1 hr; format: ADME, organism-based, Canis lupus familiaris; conditions: in vivo
# [2] = Drug uptake in DIO C57BL/6J mouse serum at 0.01 mg/kg/day, sc for 2 weeks; format: ADME, organism-based; conditions: read-out: Drug uptake
# [3] = Cmax in dog at 0.003 mg/kg/day, sc administered as infusion after 8 hrs; format: ADME, organism-based, Canis lupus familiaris; set-up: dose 0.003 mg/kg/day, route subcutaneous; conditions: in vivo
# [4] = Cmax in dog at 0.01 mg/kg, sc administered as bolus; format: ADME, organism-based, Canis lupus familiaris; set-up: dose 0.01 mg/kg, route subcutaneous; conditions: in vivo
# [5] = Tmax in Beagle dog at 0.01 mg/kg, sc; format: ADME, organism-based, Canis lupus familiaris; conditions: in vivo
# Canis familiaris [6] = experiment: Emetic effect in Beagle dog at 0.01 mg/kg, sc measured after 1 to 24 hrs; format: organism-based, Canis lupus familiaris; conditions: in vivo
# [7] = Cmax in Beagle dog at 0.01 mg/kg, sc; format: ADME, organism-based, Canis lupus familiaris; set-up: dose 0.01 mg/kg, route subcutaneous; conditions: in vivo
# [8] = Cmax in dog at 0.01 mg/kg/day, sc administered as infusion after 8 hrs; format: ADME, organism-based, Canis lupus familiaris; set-up: dose 0.01 mg/kg/day, route subcutaneous; conditions: in vivo
# Canis familiaris [9] = experiment: Emetic effect in dog at 0.003 mg/kg/day, sc as infusion for 8 hrs; format: ADME, organism-based, Canis lupus familiaris; conditions: in vivo
# Mus musculus [10] = experiment: Emetic effect in DIO C57BL/6J mouse at 0.01 mg/kg, sc for 2 weeks; format: ADME, organism-based; conditions: in vivo, 336 h
# [11] = Tmax in C57BL/6J mouse at 10 nmol/kg, sc by LC-MS/MS analysis; format: ADME, organism-based; conditions: in vivo
# Mus musculus [12] = experiment: Anorectic activity in C57BL/6J mouse assessed as inhibition of food intake at 30 nmol/kg, sc qd for 3 days relative to control; format: functional; conditions: 72 h
# [13] = Solubility of the compound in water; format: physicochemical; conditions: buffer
# [14] = target: T1, Neuropeptide Y receptor type 2 (Homo sapiens, UniProt P49146); experiment: Displacement of [125I]-PYY from human neuropeptide Y2 receptor expressed in CHO cell membranes incubated for 60 mins by TopCount micro scintillation analysis
# T1 sequence (P49146 whole entry): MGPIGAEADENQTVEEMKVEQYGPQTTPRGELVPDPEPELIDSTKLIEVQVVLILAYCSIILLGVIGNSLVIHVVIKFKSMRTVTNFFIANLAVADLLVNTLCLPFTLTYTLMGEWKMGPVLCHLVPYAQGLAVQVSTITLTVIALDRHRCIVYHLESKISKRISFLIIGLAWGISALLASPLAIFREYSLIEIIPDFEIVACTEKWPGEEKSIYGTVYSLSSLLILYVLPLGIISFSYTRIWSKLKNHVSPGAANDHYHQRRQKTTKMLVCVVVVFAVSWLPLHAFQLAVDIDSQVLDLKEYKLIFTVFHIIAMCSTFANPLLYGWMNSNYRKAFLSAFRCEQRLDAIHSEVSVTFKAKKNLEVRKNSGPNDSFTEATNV
# [15] = Cmax in Beagle dog at 3 nmol/kg, sc; format: ADME, organism-based, Canis lupus familiaris; set-up: dose 3 nmol/kg, route subcutaneous; conditions: in vivo
# Canis familiaris [16] = experiment: Emetic effect in Beagle dog at 3 nmol/kg, sc measured up to 4 hrs; format: ADME, organism-based, Canis lupus familiaris; conditions: in vivo
# Mus musculus [17] = experiment: Antiobesity activity in DIO C57BL/6J mouse assessed as reduction in body weight at 3 nmol/kg, sc qd for 2 weeks; format: functional; set-up: scale not given: the % may be the effect or the level left
# [18] = Tmax in Beagle dog at 3 nmol/kg, sc; format: ADME, organism-based, Canis lupus familiaris; conditions: in vivo
# [19] = Mean residence time in C57BL/6J mouse at 10 nmol/kg, sc by LC-MS/MS analysis; format: ADME, organism-based; conditions: in vivo
# Canis familiaris [20] = experiment: Emetic effect in Beagle dog at 3 nmol/kg, sc measured after 4 to 8 hrs; format: ADME, organism-based, Canis lupus familiaris; conditions: in vivo
# [21] = Cmax in C57BL/6J mouse at 10 nmol/kg, sc by LC-MS/MS analysis; format: ADME, organism-based; set-up: dose 10 nmol/kg, route subcutaneous; conditions: in vivo
# [22] = AUC (0 to 48 hrs) in C57BL/6J mouse at 10 nmol/kg, sc by LC-MS/MS analysis; format: ADME, organism-based; set-up: dose 10 nmol/kg, time < 48 hr, route subcutaneous; conditions: in vivo
# Mus musculus [23] = experiment: Antiobesity activity in DIO C57BL/6J mouse assessed as reduction in body weight at 30 nmol/kg, sc qd for 2 weeks; format: functional; set-up: scale not given: the % may be the effect or the level left
# Mus musculus [24] = experiment: Antiobesity activity in DIO C57BL/6J mouse assessed as reduction in body weight at 10 nmol/kg, sc qd for 2 weeks; format: functional; set-up: scale not given: the % may be the effect or the level left
smiles,measurement,setting,value
CC[C@](C)(NC(=O)[C@H]1C[C@H](O)CN1C(=O)[C@H](CO)NC(=O)c1c[nH]cn1)C(=O)N[C@@H](Cc1ccncc1)C(=O)N[C@@H](CC1CCCCC1)C(=O)N[C@@H](CC(C)(C)C)C(=O)N[C@@H](CC(N)=O)C(=O)N[C@@H](CCCCN)C(=O)NC(C)(C)C(=O)N[C@H](C(=O)N[C@@H](CCCNC(=N)N)C(=O)N[C@@H](CCC(N)=O)C(=O)N[C@@H](CCCNC(=N)N)C(=O)N[C@@H](CC1CCCCC1)C(N)=O)[C@@H](C)O,Activity,Canis familiaris [1],Toxic
same,concentration at 336 h,[2],0.225 ng/mL
same,Cmax,[3],0.18 ng/mL
same,Cmax,[4],2.9 ng/mL
same,Tmax,[5],36 min
same,Activity,Canis familiaris [6],Non-Toxic
same,Cmax,[7],2.9 ng/mL
same,Cmax,[8],0.74 ng/mL
same,Activity,Canis familiaris [9],Toxic
same,Activity,Mus musculus [10],Toxic
C[C@@H](O)[C@H](NC(=O)C(C)(C)NC(=O)[C@H](CCCCNC(=O)[C@@H](N)CCCCNC(=O)COCC(=O)NCCCOCCOCCOCCCNC(=O)CC[C@H](NC(=O)[C@H]1CC[C@H](CNC(=O)CCCCCCCCCCCCCCCCCCC(=O)O)CC1)C(=O)O)NC(=O)[C@H](CC(N)=O)NC(=O)C(C)(C)NC(=O)[C@H](CC1CCCCC1)NC(=O)[C@H](Cc1ccncc1)NC(=O)[C@H](CCCNC(=N)N)NC(=O)[C@H]1C[C@H](O)CN1C(=O)[C@H](CO)NC(=O)c1c[nH]cn1)C(=O)N[C@@H](CCCNC(=N)N)C(=O)N[C@@H](CCC(N)=O)C(=O)N[C@@H](CCCNC(=N)N)C(=O)N[C@@H](CC1CCCCC1)C(N)=O,Tmax,[11],4 h
same,inhibition in vivo at 0.03 µmol/kg,Mus musculus [12],61%
same,solubility,[13],Soluble
same,IC50,[14],8 nM
same,Cmax,[15],10.8 nM
same,Activity,Canis familiaris [16],Non-Toxic
same,Activity,Mus musculus [17],-8%
same,Tmax,[18],24 h
same,MRT,[19],9.3 h
same,Activity,Canis familiaris [20],Toxic
same,Cmax,[21],32 nM
same,AUC(0-t) at 48 h,[22],0.373 µM·h
same,Activity,Mus musculus [23],-20.7%
same,Activity,Mus musculus [24],-16.5%
